Measurements from PubChem BioAssay (NCI).
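Assay format: 96-well plates, 48-hour exposure. GI50: concentration for 50% inhibition of growth. TGI denotes the concentration required for complete inhibition of growth.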

Assays:
Experiment in all cases: DTP human tumour cell line panel, 48 h
[1] = tested on: HCC-2998 colon
[2] = tested on: OVCAR-3 ovarian
[3] = tested on: OVCAR-5 ovarian
[4] = tested on: SF-539 CNS
[5] = tested on: SK-MEL-2 melanoma
[6] = tested on: NCI-H460 lung
[7] = tested on: HT29 colon
[8] = tested on: OVCAR-4 ovarian
[9] = tested on: CAKI-1 renal
[10] = tested on: MDA-MB-231 breast

## COc1cc(NCC(C#N)C#N)ccc1N=Nc1ccc(Cl)cc1
[1]
  TGI: 35.1 µM
[2]
  TGI: 38.4 µM
[3]
  TGI: 44.4 µM
[4]
  TGI: 51.6 µM
[5]
  TGI: 46.9 µM
[6]
  TGI: 52.9 µM
[7]
  TGI: 30.5 µM
[8]
  TGI: > 100 µM

## COc1ccc([C@@]2(O)c3c(ccc(O)c3OC)[C@H]2OC)c(OC)c1
[1]
  TGI: > 100 µM
[2]
  TGI: > 100 µM
[3]
  TGI: > 100 µM
[5]
  TGI: > 100 µM
[6]
  TGI: > 100 µM
[7]
  TGI: > 100 µM
[9]
  TGI: > 100 µM
[8]
  TGI: > 100 µM

## O=S(=O)(C1=CC(S(=O)(=O)c2ccccc2)CN(Cc2ccccc2)C1c1cccc2ccccc12)c1ccccc1 (centres undefined)
[1]
  TGI: > 69 µM
[2]
  TGI: > 69 µM
[3]
  TGI: > 69 µM
[4]
  TGI: > 69 µM
[5]
  TGI: > 69 µM
[6]
  TGI: > 69 µM
[7]
  TGI: > 69 µM
[9]
  TGI: > 69 µM
[8]
  TGI: > 69 µM

## [N-]=[N+]=NCCCn1c2c(c3ccc([N+](=O)[O-])cc3c1=O)C(=O)c1ccccc1-2
[3]
  GI50: > 100 µM
  TGI: > 100 µM
[5]
  GI50: > 100 µM
  TGI: > 100 µM
[10]
  GI50: 3.57 µM
  TGI: 43.2 µM
[6]
  GI50: 8.65 µM
  TGI: > 100 µM
[7]
  GI50: > 100 µM
  TGI: > 100 µM
[9]
  GI50: 5.11 µM
  TGI: 43.3 µM

## O=C1C(=O)c2ccccc2C(O)=C1C(C1=C(O)c2ccccc2C(=O)C1=O)c1ccc(Cl)cc1
[2]
  TGI: 11.4 µM
[3]
  TGI: 17.3 µM
[4]
  TGI: 32.9 µM
[5]
  TGI: 24.1 µM
[10]
  TGI: 22.7 µM
[6]
  TGI: 28.9 µM
[7]
  TGI: 20.9 µM
[9]
  TGI: 23.8 µM
[8]
  TGI: 18.6 µM

## COc1cc(NS(=O)(=O)c2ccc(C)cc2)c2nccnc2c1
[1]
  TGI: > 100 µM
[2]
  TGI: > 100 µM
[3]
  TGI: > 100 µM
[4]
  TGI: 83.8 µM
[5]
  TGI: 54.5 µM
[6]
  TGI: > 100 µM
[7]
  TGI: > 100 µM
[9]
  TGI: > 100 µM
[8]
  TGI: > 100 µM

## COC(=O)C(=O)CC(=O)CCn1[nH]c(=O)c(Cl)c(Cl)c1=O
[1]
  TGI: > 100 µM
[2]
  TGI: > 100 µM
[3]
  TGI: > 100 µM
[4]
  TGI: > 100 µM
[5]
  TGI: > 100 µM
[6]
  TGI: > 100 µM
[7]
  TGI: > 100 µM
[9]
  TGI: > 100 µM
[8]
  TGI: > 100 µM

## CCC[CH2][Sn]([CH2]CCC)([O]C(=O)CN)[O]C(=O)CN
[1]
  GI50: 93.3 µM
  TGI: > 100 µM
[2]
  GI50: 27.8 µM
  TGI: > 100 µM
[3]
  GI50: > 100 µM
  TGI: > 100 µM
[4]
  GI50: 57 µM
  TGI: > 100 µM
[5]
  GI50: 18.5 µM
  TGI: 48.8 µM
[6]
  GI50: > 100 µM
  TGI: > 100 µM
[7]
  GI50: > 100 µM
  TGI: > 100 µM
[9]
  GI50: 14.7 µM
  TGI: 51.1 µM
[8]
  GI50: > 100 µM
  TGI: > 100 µM

## C=CC[P@]1(=O)O[C@H](c2ccccc2)[C@H](C)N1C
[1]
  TGI: > 100 µM
[2]
  TGI: > 100 µM
[3]
  TGI: > 100 µM
[4]
  TGI: > 100 µM
[6]
  TGI: > 100 µM
[7]
  TGI: > 100 µM
[8]
  TGI: > 100 µM

## CN(C)Cc1cc(C(F)(F)F)ccc1C(O)(c1ccccc1)c1ccccc1
[2]
  TGI: > 100 µM
[3]
  TGI: 36.9 µM
[4]
  TGI: 32.7 µM
[5]
  TGI: 41 µM
[10]
  TGI: 24.8 µM
[6]
  TGI: 28.1 µM
[7]
  TGI: 21.6 µM
[9]
  TGI: 31.2 µM
[8]
  TGI: 37.5 µM

## Cc1ccc(S(=O)(=O)N=Nc2c(O)[nH]c3cc(O)c(C(=O)O)cc23)cc1
[1]
  TGI: > 100 µM
[2]
  TGI: > 100 µM
[3]
  TGI: > 100 µM
[5]
  TGI: > 100 µM
[10]
  TGI: > 100 µM
[6]
  TGI: > 100 µM
[7]
  TGI: > 100 µM
[9]
  TGI: > 100 µM
[8]
  TGI: > 100 µM

## O=C(O)CSCCc1ccccc1
[2]
  TGI: > 100 µM
[3]
  TGI: > 100 µM
[4]
  TGI: > 100 µM
[5]
  TGI: > 100 µM
[10]
  TGI: > 100 µM
[6]
  TGI: > 100 µM
[7]
  TGI: > 100 µM
[9]
  TGI: > 100 µM
[8]
  TGI: > 100 µM

## CC(=O)C1C(c2ccccc2)C2(C)OC(=O)C(C#N)C12C (centres undefined)
[2]
  TGI: > 100 µM
[3]
  TGI: > 100 µM
[4]
  TGI: > 100 µM
[5]
  TGI: > 100 µM
[6]
  TGI: > 100 µM
[8]
  TGI: > 100 µM

## CSC(SC)(C(=O)O)c1cc(-c2c(Cl)cccc2Cl)no1
[2]
  TGI: > 100 µM
[3]
  TGI: > 100 µM
[4]
  TGI: > 100 µM
[5]
  TGI: > 100 µM
[10]
  TGI: > 100 µM
[6]
  TGI: > 100 µM
[7]
  TGI: > 100 µM
[9]
  TGI: > 100 µM
[8]
  TGI: > 100 µM

## O=C1N/C(=C\[N+](=O)[O-])c2ccccc21
[1]
  TGI: > 100 µM
[2]
  TGI: > 100 µM
[3]
  TGI: > 100 µM
[4]
  TGI: > 100 µM
[6]
  TGI: > 100 µM
[7]
  TGI: > 100 µM
[8]
  TGI: > 100 µM

## Cc1cn(C2CC(OC(=O)c3ccc(Cl)cc3)C(COC(=O)c3ccc(Cl)cc3)O2)c(=O)[nH]c1=O (centres undefined)
[2]
  TGI: > 100 µM
[3]
  TGI: > 100 µM
[5]
  TGI: > 100 µM
[6]
  TGI: > 100 µM
[7]
  TGI: > 100 µM
[9]
  TGI: > 100 µM
[8]
  TGI: > 100 µM

## O=c1[nH]c2ccccc2cc1-c1nc2ccc(Cl)cc2[nH]1
[1]
  GI50: 11 µM
  TGI: > 100 µM
[2]
  GI50: 2.37 µM
  TGI: 7.25 µM
[3]
  GI50: 51.7 µM
  TGI: > 100 µM
[4]
  GI50: 4.13 µM
  TGI: 17.2 µM
[10]
  GI50: 3.25 µM
  TGI: 85.9 µM
[6]
  GI50: 2.61 µM
  TGI: > 100 µM
[7]
  GI50: 4.24 µM
  TGI: > 100 µM
[9]
  GI50: 1.02 µM
  TGI: > 100 µM
[8]
  GI50: 5.09 µM
  TGI: > 100 µM

## NC(CCCC(N)P(=O)(O)O)P(=O)(O)O (centres undefined)
[1]
  TGI: > 100 µM
[2]
  TGI: > 100 µM
[4]
  TGI: > 100 µM
[6]
  TGI: > 100 µM
[7]
  TGI: > 100 µM
[9]
  TGI: > 100 µM

## Cc1ccc(S(=O)(=O)N/N=C2\CCCCC23CCC(=O)NC3)cc1 (centres undefined)
[1]
  TGI: > 100 µM
[2]
  TGI: > 100 µM
[4]
  TGI: > 100 µM
[5]
  TGI: > 100 µM
[6]
  TGI: > 100 µM
[9]
  TGI: > 100 µM
[8]
  TGI: > 100 µM

## O=C(Nc1ccc(C(F)(F)F)cc1[N+](=O)[O-])C(=O)C1NC(=S)NC1=O (centres undefined)
[1]
  TGI: > 100 µM
[2]
  TGI: > 100 µM
[3]
  TGI: > 100 µM
[4]
  TGI: > 100 µM
[5]
  TGI: > 100 µM
[6]
  TGI: > 100 µM
[7]
  TGI: > 100 µM
[9]
  TGI: > 100 µM
[8]
  TGI: > 100 µM

## N#CCC(=O)N/N=C1/C(=O)N(c2ccc(Cl)cc2)C(=O)C(=O)C1c1nc2ccccc2s1 (centres undefined)
[1]
  TGI: > 100 µM
[2]
  TGI: > 100 µM
[3]
  TGI: > 100 µM
[5]
  TGI: > 100 µM
[7]
  TGI: > 100 µM
[9]
  TGI: > 100 µM
[8]
  TGI: > 100 µM

## CC1(O)C(C)(O)C2(C)O[Te]3(OC12C)OC1(C)C(C)(O)C(C)(O)C1(C)O3 (centres undefined)
[1]
  TGI: > 100 µM
[2]
  TGI: 41.5 µM
[3]
  TGI: 29.4 µM
[4]
  TGI: > 100 µM
[5]
  TGI: > 100 µM
[6]
  TGI: 47.9 µM
[7]
  TGI: > 100 µM
[8]
  TGI: 77.9 µM

## COc1ccc(C=O)cc1O[Si](C)(C)C(C)(C)C
[1]
  TGI: > 100 µM
[2]
  TGI: > 100 µM
[3]
  TGI: > 100 µM
[4]
  TGI: > 100 µM
[5]
  TGI: > 100 µM
[6]
  TGI: > 100 µM
[7]
  TGI: > 100 µM
[9]
  TGI: > 100 µM
[8]
  TGI: > 100 µM
